In patent publication US12263175B2, “Optimised dosage of diaminophenothiazines in populations” (WisTa Laboratories Ltd., priority 2018, dated 2025):
Values joined by “and” are separate entries in the source; they are usually repeats but may differ in a detail not shown here. Identical values can stand only once. Like-named read-outs stand apart in the source and are kept apart here.

How the values were obtained:
[1] = tested on: AD patients; assay: Phase 3 AD studies 005 and 015: clinical and MRI volumetric endpoints by Cmax,ss group; assay type: in vivo, human; settings: for EC50: Homo sapiens, 10920 h, ADAS-cog over 65 weeks, read-out: Cmax,ss concentration required for half-maximal treatment response
Procedure: The trial design for the Phase 3 AD studies “005” and “015” are described in Examples 4 and 3 respectively of WO2018/019823, which Examples also discuss those results. The disclosure of those Examples is specifically incorporated herein by reference. Briefly, those Phase 3 trials compared high doses of LMTM (150-250 mg/day) with a low dose (8 mg/day) intended as a mask for potential urine discolouration (Gauthier 2016; Wilcock 2018).
The results are shown in FIGS. 3a and 3b which show the same data. Patients using symptomatic treatments are labelled “Achmem”.
(§1) That threshold was <0.373 ng/mL.
A further analysis of ADAS-cog decline over 65 weeks was undertaken using a modified form of the Hill equation (Wagner, 1968) in order to estimate the minimum and maximum plasma concentrations for expected treatment response over 65 weeks. […] In addition, a linear term was added to permit trends occurring at high concentrations to be included in the model using data for doses in the range 150-250 mg/day. The expanded Hill equation was applied to the data in the form: change in parameter=Emin−(Emax*([C]−0.29))/(EC50+([C]−0.29))+(A*([C]−0.29)) where Emin is the imposed zero value, Emax is the maximum treatment effect assumed in the standard Hill equation, EC50 is the Cmax,ss at which the treatment effect is 50% of the maximum assumed in the standard Hill equation and A is a further linear term estimated by the model to take account of a potential biphasic response. […] The dose range in which the treatment response is estimated to be maximal is 20-60 mg/day.

[2] = tested on: bvFTD patients; assay: Phase 3 bvFTD trial: clinical and MRI endpoints by Cmax,ss group; assay type: in vivo, human
Excerpt: The trial design for the Phase 3 trial of LMTM in behavioural variant frontotemporal dementia (bvFTD) is described in Examples 3 to 10 of WO2018/041739, which Examples also discuss those results. The disclosure of those Examples is specifically incorporated herein by reference.
(§2) The population PK model described above was used to estimate Cmax of parent MT in the patients in the bvFTD study. As with the AD trials described above, the median value at each dose was taken as a threshold for dividing patients into “High Cmax” and “Low Cmax” groups.
However the decline in the Cmax high group was much reduced (−6.1±1.8). All efficacy analyses are based on an MMRM approach
Alternative efficacy analyses were performed in which the group of patients with minimal systemic exposure to the drug was used as a proxy for placebo. These are shown in the Table EX8 below and illustrated in FIG. 19.
In addition, a linear term was added to permit trends occurring at high concentrations to be included in the model using mean decline occurring at the 200 mg/day dose.

[3] = tested on: tau transgenic mouse model; assay: Tau transgenic mouse model, spatial learning memory after pre-treatment with symptomatic drugs; assay type: in vivo
Excerpt: As is evident from the foregoing, there is a reduction in the maximum effect of LMTM when it is combined with symptomatic treatments. It should be noted however, that this relates to a context in which patients have received LMTM against a background of chronic pre-treatment with symptomatic drugs. The mechanism of this has been elucidated in a series of experiments in a well characterised tau transgenic mouse model.

[4] = Population PK model estimate of steady-state parent MT Cmax in AD patients (Studies 005 and 015); assay type: in vivo, human; settings: for Cmax: human, plasma, oral
Excerpt: This, the PK model was then further developed and simplified to a two compartment model fit to the parent MT concentrations only. This model has a fixed Vc, but the dose-dependent Ka is removed.
This model was derived from Study 036 discussed above. The disposition of parent MT post PO administration of LMTM was adequately described by a two-compartment model with and a delayed absorption occurring through two transit compartments. Apparent oral clearance (CL/F) of parent MT was related to renal function such that a small portion of the variability in parent CL is described by normalized creatinine clearance (CLCRN).
The population PK model was then used to estimate Cmax of parent MT in the patients who received 4 mg or high dose (c. 200 mg/day) in these Phase 3 AD studies. This Bayesian process involved fixing the population mean and inter-individual variability parameters to the estimates from the fit of the population PK model to the steady-state data from Study 036 and allowing the program to select a set of parameters, given those Bayesian priors, which best predicts the parent MT concentrations from Day 1 in each individual.
as §1
Higher doses were grouped according to dose (N=187-329 per group).
Since only 65% of patients receiving the 8 mg/day have plasma concentrations above the threshold required for significant treatment benefit, it is desirable to determine the minimum dose at which 100% patients would be expected to have plasma levels within the therapeutic range.

[5] = Population PK model estimate of steady-state parent MT Cmax in bvFTD trial patients; assay type: in vivo; settings: human, plasma, oral, 8 mg/day, read-out: Cmax,ss cut-off, upper limit of the lowest 35% group
Procedure: as §2
The cut-off that defined the upper limit of the lowest 35% group (corresponding to the percentage of patients with plasma levels below the validated limit of quantitation in Day 1) was 0.346 ng/ml for the bvFTD population.
As for AD (see Example 10) the remainder with Day 1 plasma levels within the validated range of quantitation at the 8 mg/day dose were distributed in 3 groups having approximately equal numbers (22% each; see Table EX7 below).

[6] = A. All patients split by Cmax,ss 0.373 ng/mL, over 65 weeks
[7] = B. Patients receiving LMTM, 8 mg/day, over 65 weeks
[8] = LMTM, 8 mg/day, as add-on therapy (AChEI and/or memantine), over 65 weeks
[9] = LMTM, 8 mg/day, as monotherapy, over 65 weeks
[10] = LMTM, 8 mg/day, threshold 0.373 ng/ml, over 65 weeks

## CN(C)c1ccc2c(c1)Sc1cc(N(C)C)ccc1N2 [LMTM, leuco-methylthioninium bis(hydromethanesulfonate)]
[1]; 4 mg bid, over 65 weeks
  Predicted treatment effect relative to placebo: ~5 ADAS-cog units
[1]; [6]
  ADAS-cog Difference ± SEM, Cmax,ss above vs below 0.373 ng/mL: −2.99 ± 0.67 ADAS-cog units
  ADCS-ADL Difference ± SEM, Cmax,ss above vs below 0.373 ng/mL: 0.54 ± 0.94
  LVV Difference ± SEM, Cmax,ss above vs below 0.373 ng/mL: −1.52 ± 0.34 cm^3
  WBV Difference ± SEM, Cmax,ss above vs below 0.373 ng/mL: 3.55 ± 1.06 cm^3
[1]; [7]
  ADCS-ADL Difference ± SEM, Cmax,ss above vs below 0.373 ng/mL: 1.22 ± 1.01
  LVV Difference ± SEM, Cmax,ss above vs below 0.373 ng/mL: −1.78 ± 0.38 cm^3
  WBV Difference ± SEM, Cmax,ss above vs below 0.373 ng/mL: 4.39 ± 1.18 cm^3
[1]; LMTM combined with symptomatic treatments
  EC50: 0.4 ± 0.05 ng/mL
[1]; LMTM monotherapy
  EC50: 0.32 ± 0.01 ng/mL
[1]; [8]
  ADAS-cog11 Difference ± SEM, Cmax,ss above vs below 0.373 ng/mL: −3.52 ± 0.78
  ADCS-ADL23 Difference ± SEM, Cmax,ss above vs below 0.373 ng/mL: 1.32 ± 1.04
  LVV Difference ± SEM, Cmax,ss above vs below 0.373 ng/mL: −1.35 ± 0.37 cm^3
  WBV Difference ± SEM, Cmax,ss above vs below 0.373 ng/mL: 4.69 ± 1.21 cm^3
[1]; [9]
  ADAS-cog11 Difference ± SEM, Cmax,ss above vs below 0.373 ng/mL: −2.60 ± 1.16
  ADCS-ADL23 Difference ± SEM, Cmax,ss above vs below 0.373 ng/mL: 0.46 ± 1.47
  LVV Difference ± SEM, Cmax,ss above vs below 0.373 ng/mL: −1.46 ± 0.45 cm^3
  WBV Difference ± SEM, Cmax,ss above vs below 0.373 ng/mL: 2.76 ± 1.66 cm^3
[1]; [10]
  ADAS-cog11 Difference ± SEM, low Cmax add-on vs high Cmax monotherapy: −7.53 ADAS-cog11 units and −7.53 ± 1.22 ADAS-cog11 units
  ADCS-ADL23 Difference ± SEM, low Cmax add-on vs high Cmax monotherapy: 6.14 ± 1.64
  LVV Difference ± SEM, low Cmax add-on vs high Cmax monotherapy: −3.15 ± 0.62 cm^3
  WBV Difference ± SEM, low Cmax add-on vs high Cmax monotherapy: 11.54 ± 1.87 cm^3
[1]; expanded Hill equation, ADAS-cog decline over 65 weeks
  Dose range in which the treatment response is estimated to be maximal: 20 to 60 mg/day
[1]; expanded Hill equation, over 65 weeks
  Reduction of estimated maximum treatment effect when combined with symptomatic treatments, compared with monotherapy: about 4 ADAS-cog units
[1]; high dose LMTM (pooled 200 mg/day)
  Temporal lobe FDG-PET decline: attenuated benefit otherwise seen for LMTM monotherapy
[1]; pooled 8 mg/day (4 mg bid), Studies 005 and 015, over 65 weeks
  Mean difference between monotherapy and add-on, ADAS-cog change: ~4 ADAS-cog units
[2]; bvFTD patients receiving 8 mg/day, expanded Hill equation
  Lower limiting plasma concentration required for treatment response: 0.29 ng/mL
[2]; bvFTD, 200 mg/day vs 8 mg/day
  Dose-response for high dose monotherapy on functional FAQ scale: inverse dose-response
[2]; bvFTD, whole brain volume over 52 weeks
  Predicted dose corresponding to the maximum limiting concentration: 301 mg/day
[2]; bvFTD, whole brain volume over 52 weeks, expanded Hill equation
  Maximum limiting concentration at which the treatment effect was lost: 13.57 ng/mL
[3]; chronic pre-treatment with rivastigmine
  Effect on spatial learning memory: elimination of the beneficial effect
[3]; pre-treatment with memantine
  Effect on spatial learning memory: eliminated the effect
[4]; 4 mg bid
  Proportion of subjects above Cmax threshold: 50%
[4]; AD patients
  Critical therapeutic threshold for Cave,ss: 0.223 ng/mL
  Critical therapeutic threshold for Cmax,ss: 0.393 ng/mL
[4]; AD patients receiving 8 mg/day
  Patients with plasma concentrations above the threshold required for significant treatment benefit: 65%
[4]; AD, studies TRx-237-015 and TRx-237-005, 8 mg/day - Group 2
  Plasma-modelled parent MT Cmax,ss Mean (SD): 0.393 (0.0125) ng/mL
[4]; AD, QD or BID, either Cmax,ss or Cave,ss criterion
  Dose for 100% of patients to have plasma levels in the therapeutic range: at least 16 mg/day
[4]; dosing above 20 mg MT (e.g. as LMTM), depends on number of split doses
  Proportion of subjects achieving Cmax above the median-derived threshold value: 90 to 100%
[4]; 8 mg/day, AD patients receiving LMTM 8 mg/day, read-out: Cmax,ss threshold, upper limit of the lowest 35% of patients
  Cmax: < 0.373 ng/mL
[4]; 8 mg/day, AD, studies TRx-237-015 and TRx-237-005, 8 mg/day - Group 1, read-out: Plasma-modelled parent MT Cmax,ss Range
  Cmax: 0.257 to 0.373 ng/mL
[4]; 8 mg/day, AD, studies TRx-237-015 and TRx-237-005, 8 mg/day - Group 2, read-out: Plasma-modelled parent MT Cmax,ss Range
  Cmax: 0.373 to 0.414 ng/mL
[4]; 8 mg/day, AD, studies TRx-237-015 and TRx-237-005, 8 mg/day - Group 3, read-out: Plasma-modelled parent MT Cmax,ss Range
  Cmax: 0.415 to 0.478 ng/mL
[4]; 8 mg/day, AD, studies TRx-237-015 and TRx-237-005, 8 mg/day - Group 4, read-out: Plasma-modelled parent MT Cmax,ss Range
  Cmax: 0.479 to 0.812 ng/mL
[4]; 150 mg/day, AD, studies TRx-237-015 and TRx-237-005, 150 mg/day, read-out: Plasma-modelled parent MT Cmax,ss Range
  Cmax: 5.1 to 18.6 ng/mL
[4]; 200 mg/day, AD, studies TRx-237-015 and TRx-237-005, 200 mg/day, read-out: Plasma-modelled parent MT Cmax,ss Range
  Cmax: 6.56 to 21.3 ng/mL
[4]; 250 mg/day, AD, studies TRx-237-015 and TRx-237-005, 250 mg/day, read-out: Plasma-modelled parent MT Cmax,ss Range
  Cmax: 8.83 to 21.2 ng/mL
[4]; ˜20 mg/day (10 mg bid)
  Estimated proportion of subjects above Cmax threshold: ~100%
[5]
  Cmax: 0.346 ng/mL
